Holding throughout (assay): Cell proliferation IC50 (Cell Titer Glo)
Background: ATP-based viability assays read luminescence as a measure of living cells.

One assay has as its system A204. Format: cell-based. As to conditions: Homo sapiens, read-out: IC50 cell proliferation. How it is done: (§1) IC50 Cell proliferation measurements. Cell proliferation was assessed in the 41 tumor cell lines set forth in Table 2 after 4 days of continuous exposure to either the ERK1/2 inhibitor, compound a or the MEK inhibitor compound b (PD0325901) using Promega Cell Titer Glo reagent (Promega Corp, Madison, Wis.). Promega's CellTiter-Glo™ Luminescent Cell Viability Assay is a sensitive method for assaying cell proliferation using a stable form of luciferase to measure ATP as an indicator of viable cells. This reagent allows a homogeneous method of determining cell number by quantitation of ATP. The luciferase luminescent signal produced is proportional to the number of viable cells present in culture.
(§2) A 1000× compound dose response curve, containing 8 dilutions of each compound, was prepared on a 96-well plate. Compounds were diluted in 100% DMSO to the following (1000×) concentrations: compound b: 1000 μM, 333 μM, 111 μM, 37 μM, 12 μM, 4.1 μM, 1.4 μM and 0.5 μM; compound a: 3000 μM, 1000 μM, 333 μM, 111 μM, 37 μM, 12 μM, 4.1 μM and 1.4 μM. This compound source plate was sealed and kept frozen between uses.
(§3) Cells were grown in RPMI 1640 medium supplemented with 10% Fetal Bovine Serum, 2 mM Glutamine and non-essential amino acids or DMEM/F12 Media containing the same supplements. On day zero, cells were trypsinized, counted and plated into wells of a 96-well Wallac TC Isoplate (Perkin-Elmer Wallac, Gaithersburg, Md.) at a density of 1500-2000 cells per well in 50 μl of complete media. An additional 6-8 replicate well of the cells at the same density were plated on a separate Wallac TC Isoplate. This plate was developed on day 1 to determine the cell-growth baseline.
(§4) On day 1 of treatment, compound was diluted to 2× in media and immediately added to the cells as follows: one ml of media was added to each well of a deep-well 96-well plate and 2 μl of 1000× compound was added with mixing to make 2× compound in media. 50 μl of the media containing 2× compound was added to the cell plates in duplicate points so the final concentrations for each well were as outlined in Table 1. The plates were then returned to a 37° C. incubator and left undisturbed for 4 days. The day 1 (baseline) plates were developed by first adding 50 μl media (without compound) to bring the volume in each well to 100 μl, then adding 100 μl of Cell Titer Glo reagent (as below).
(§5) After four days of treatment, the plates were developed with Cell Titer Glo (CTG) reagent (Promega Corp.; Madison, Wis.). Reagent was reconstituted as described in the product insert. 100 μl of reagent was added to all treatment and control wells and the plates were gently shaken for 5 minutes then incubated an additional 5 minutes before reading in an Analyst AD (Molecular Devices Corporation; Sunnyvale, Calif.) using the Luminescence settings.
(§6) Data was analyzed in Excel using XLfit 4.2, fit model #205 (Dose Response One Site)

The test system of a further assay is A2058. Type of assay: cell-based. Conditions: Homo sapiens, read-out: IC50 cell proliferation. Here is the method:
as §1, §2, §3, §4, §5, §6

Another assay deals with BHT 101. Type of assay: cell-based. As to conditions: Homo sapiens, read-out: IC50 cell proliferation. How it is done:
as §1, §2, §3, §4, §5, §6

The test system of another assay is HT-29. Type of assay: cell-based. As to conditions: Homo sapiens, read-out: IC50 cell proliferation. Here is the method: as §1, §2, §3, §4, §5, §6
The next assay concerns Jurkat. Type of assay: cell-based. Conditions: Homo sapiens, 96 h, read-out: IC50 cell proliferation. Here is the method: as §1, §2, §3, §4, §5, §6
In a further assay the test system is LOX. Type of assay: cell-based. As to conditions: Homo sapiens, 96 h, read-out: IC50 cell proliferation. Here is the method:
as §1, §2, §3, §4, §5, §6

The next assay deals with SNU-16. Type of assay: cell-based. As to conditions: Homo sapiens, read-out: IC50 cell proliferation. How it is done:
as §1, §2, §3, §4, §5, §6

In a further assay the test system is UACC-62. Format: cell-based. As to conditions: Homo sapiens, read-out: IC50 cell proliferation. How it is done: as §1, §2, §3, §4, §5, §6
For a further assay, the system named is WiDr. Format: cell-based. Conditions: Homo sapiens, 96 h, read-out: IC50 cell proliferation. Here is the method: as §1, §2, §3, §4, §5, §6
A further assay has as its system WM-115. Type of assay: cell-based, human. As to conditions: 4 days continuous exposure. How it is done:
as §1, §2, §3, §4, §5, §6

A further assay concerns WM-266-4. Format: cell-based, human. As to conditions: 4 days continuous exposure. Here is the method: as §1, §2, §3, §4, §5, §6

Each structure is given as a SMILES string. Read-outs that look alike come from different tables or passages of the source.

For `O=C(NOC[C@H](O)CO)c1ccc(F)c(F)c1Nc1ccc(I)cc1F` [cpd. b, PD0325901], the IC50 was 1000 nM with A204 (A204, 96 h); 10 nM in the assay on A2058 (A2058, 96 h); 10 nM in the assay on BHT 101 (BHT-101, 96 h); 20 nM in the assay with HT-29 (HT-29, 96 h); 1000 nM in the assay with Jurkat; 57 nM in the assay on LOX. The IC50 in the assay with SNU-16 (SNU-16, 96 h) was 1000 nM; with UACC-62 (UACC-62, 96 h), 5 nM; in the assay with WiDr, 6 nM; in the assay with WM-115 (Homo sapiens, WM-115, 96 h, read-out: IC50 cell proliferation, WM-115, Melanoma, BRAF V600D Heterozygous) it was below 10 nM; with WM-115 (read-out: IC50 cell proliferation, WM-115, Melanoma, BRAF V600D Heterozygous), 10 nM; with WM-266-4 (Homo sapiens, WM 266-4, 96 h, read-out: IC50 cell proliferation, WM-266-4, Melanoma, BRAF V600D Heterozygous) it was below 10 nM. Moreover, the IC50 with WM-266-4 (read-out: IC50 cell proliferation, WM-266-4, Melanoma, BRAF V600D Heterozygous) came out at 10 nM.
Turning to `O=C(Nc1ccc2[nH]nc(-c3ccncc3)c2c1)C1CCN(CC(=O)N2CCN(c3ccc(-c4ncccn4)cc3)CC2)C1` (stereo not drawn) [cpd. a], the IC50 is above 3000 nM in the assay on A204 (96 h, A204, Rhabdomyosarcoma, BRAF V600V Wild type, 4 days continuous exposure); 120 nM with A2058 (96 h, A2058, Melanoma, BRAF V600E Heterozygous, 4 days continuous exposure); 300 nM in the assay on BHT 101 (96 h, BHT 101, Thyroid, BRAF V600E Heterozygous, 4 days continuous exposure); 50 nM in the assay on HT-29 (96 h, HT-29, Colon, BRAF V600E Heterozygous, 4 days continuous exposure); above 3000 nM in the assay on Jurkat (Leukemia, BRAF V600V Wild type, 4 days continuous exposure); 100 nM in the assay with LOX (Melanoma, BRAF V600E Homozygous, 4 days continuous exposure). The IC50 with SNU-16 (96 h, SNU-16, Gastric, BRAF V600V Wild type, 4 days continuous exposure) was above 3000 nM; in the assay with UACC-62 (96 h, UACC-62, Melanoma, BRAF V600E Homozygous, 4 days continuous exposure), 30 nM; in the assay on WiDr (Colon, BRAF V600E Heterozygous, 4 days continuous exposure), 39 nM; in the assay on WM-115 (Homo sapiens, WM-115, 96 h, WM-115, Melanoma, BRAF V600D Heterozygous, read-out: IC50 cell proliferation), below 100 nM; with WM-115 (WM-115, Melanoma, BRAF V600D Heterozygous, read-out: IC50 cell proliferation), 60 nM.
